Values quoted from earlier work, collected in patent publication US4939134A, “26-aminocholesterol and derivatives and analogs thereof in the regulation of cholesterol accumulation in body tissue” (New York University, priority 1988, dated 1990).

Tests used:
[1] = system: hepatic cholesterol synthesis; conditions: cited from earlier work
LDL receptors = conditions: fibroblasts and other non-hepatic cells, cell culture studies; cited from earlier work
HMG CoA reductase = conditions: cited from earlier work

CC[C@H](C)C(=O)O[C@H]1C[C@@H](C)C=C2C=C[C@H](C)[C@H](CC[C@@H]3C[C@@H](O)CC(=O)O3)[C@H]21 [mevinolin]
hepatic cholesterol synthesis [1]: inhibit hepatic cholesterol synthesis
LDL receptors (LDL receptors): upregulates LDL receptors
amount of HMG CoA reductase (HMG CoA reductase): increases the amount of HMG CoA reductase
